This is an account of results in BindingDB's records for doi:10.1016/j.bmcl.2009.04.124 (H. Lee Moffitt Cancer Center, 2009).

The structures appear in SMILES notation.

The target of the experiment is E3 ubiquitin-protein ligase Mdm2 (Homo sapiens, UniProt Q00987). Briefly: AlphaScreen Assay. The conditions noted are these: pH 7.4; 24 °C. Here is the method:
When two proteins interact (one of which is conjugated to the donor bead and the other to the acceptor bead) the beads are brought into close proximity. Excitation of a photosensitizer in the donor bead results in the production of singlet oxygen that diffuses to and reacts with a chemiluminescent molecule in the acceptor bead. […] Nickel acceptor beads and glutathione donor beads were added. Following 1 h incubation at 24 deg C, the mixture was analyzed in a fluorometer at an excitation wavelength of 680 nm. Nutlin-3a obtained from Cayman Chemical was used as a control. The IC50 values reported are from runs repeated four times.
In general terms: Bead proximity is the source of the signal in Alpha formats.

Chain of E3 ubiquitin-protein ligase Mdm2 (Q00987 whole entry): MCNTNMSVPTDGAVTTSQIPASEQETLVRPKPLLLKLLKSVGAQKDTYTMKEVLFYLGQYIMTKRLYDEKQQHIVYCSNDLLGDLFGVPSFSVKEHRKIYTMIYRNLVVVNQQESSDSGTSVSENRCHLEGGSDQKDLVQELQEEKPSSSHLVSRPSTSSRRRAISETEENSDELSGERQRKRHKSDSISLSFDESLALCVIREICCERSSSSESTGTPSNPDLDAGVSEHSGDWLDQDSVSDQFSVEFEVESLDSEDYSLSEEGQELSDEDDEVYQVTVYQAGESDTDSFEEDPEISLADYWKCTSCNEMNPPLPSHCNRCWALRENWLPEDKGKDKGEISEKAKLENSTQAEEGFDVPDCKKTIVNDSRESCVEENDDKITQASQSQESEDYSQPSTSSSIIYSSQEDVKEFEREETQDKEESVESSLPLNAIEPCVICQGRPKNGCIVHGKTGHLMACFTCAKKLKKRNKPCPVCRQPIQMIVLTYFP

Broadly, the IC50 is the concentration that gives 50% inhibition. A lower IC50 goes with greater potency in that assay. Consider `c1ccc(C(N=Nc2nc3ccccc3s2)c2ccccn2)cc1` (stereo unspecified) [NSC-333003], for which the IC50 turned out to be 25 µM.
